Data as given in US6599943B1, “Use of hydroxyguanidines” (WaPharm AB, priority 1996, dated 2003).
Counter-ions that a name gives are not always drawn. Marks after values point to notes of the source that are not given here.

Key:
[1] = molecular target: bovine milk xanthine oxidase (Bos taurus, UniProt P80457); assay: Capacity to sustain oxidation of xanthine by xanthine oxidase in the absence of oxygen, spectrophotometric; format: biochemical; design: host or cells: bovine milk
Method: Capacities of a series of hydroxyguanidine to sustain the oxidation of xanthine by xanthine oxidase in the absence of oxygen. The capacities of various hydroxyguanidines to sustain the oxidation of xanthine was assayed by using a spectrophotometric method. In this method bovine milk xanthine oxidase was injected to a Helma® sealable cuvette for anaerobic application thereby creating 1 ml of a reaction mixture that contained reagents as follows: 50 μM of a hydroxyguanidine, 50 μM xanthine, 0.05 units/ml bovine milk xanthine oxidase, 50 mM Tris and 1.5 mM EDTA; the pH of the reaction mixture being 7.5, and the temperature 20° C. Anaerobic conditions were assured by pre-gassing all solutions used for 5-10 min, with nitrogen. The rate of formation of uric acid was monitored spectrophotometrically by measuring the increase in absorbance at 295 nm (the absorption maximum for uric acid) at intervals. The relative capacities of the hydroxyguanidines to sustain oxidation of xanthine were estimated from the derivative of the initial linear phase of the curves. To obtain blank readings an equal volume of the solvent of the hydroxyguanidine (water) was added to the reaction mixture in separate experiments and the initial rate of absorbance change was substracted from the rate readings of the tested hydroxyguanidine.
Exemplary initial rates for the rate of the support of the oxidation of xanthine obtained by assaying the exemplary hydroxyguanidines listed above by the method in the present example are furthermore given in Table 2: […]

rat spleen tissue = assay: Formation of uric acid in spleen tissue under anaerobic conditions, HPLC
Method: Capacity of a hydroxyguanidine (PR5) to sustain the formation of uric acid in tissues. […] Pieces of 0.6 g of rat spleen tissue were incubated in 7.5 ml argon-saturated Tris-Ringer buffer (4 mM KCl, 100 mM NaCl, 2 mM CaCl2, 2 mg/ml glucose and 40 mM TrisHCl, pH 7.4) in 50 ml Erlenmeyer flasks at 37° C., care being taken to maintain an atmosphere of argon above the incubations. As aerobic control served identical incubations, except that the buffers were saturated with air and the incubations performed under air. After 30 min the flasks were opened and the tissues minced to obtain tissue cubes with about 1 mm sides. […] The supernatants were then centrifuged using Ultrafree-MC Biomax-10 Millipore filtration devices at 5000×g for 0.5 hr in order to obtain an essentially particle free preparation which was being kept at −20° C. until analysed for the uric acid content using HPLC.
For analysing the uric acid content the above preparations were thawed and 0.05 ml aliquots were injected onto Waters 2690 Separation Module using a 2.1×250 mm Vydac RP C18, 90A, 201HS1010 column using a linear gradient of 10 mM KH2PO4 (A) and 10 mM KH2PO4 in 50% (v/v) methanol/water (B) (both at pH 4.55 adjusted with phosphoric acid). […] The uric acid peak was eluted after 13 min and was identified and detected according to the spectrum of a standard uric acid reference.

[2] = tested on: rat hearts (reperfusion injury); assay: Reperfusion injury of the heart: coronary artery occlusion/reperfusion arrhythmias; format: in vivo
From the text: Capacity of a hydroxyguanidine (PR5) to afford a tissue protective effect in the heart. […] In this model the coronary arteries of rat hearts were occluded, and after some time reperfusion was allowed to occur. During reperfusion events of cardiac arrhythmias are observed. They are well known to be related to the accumulation of oxygen derived free radicals. These arrhythmias are monitored in the animals treated with PR5 and in control animals either receiving no drug or allopurinol. Allopurinol was used as a control because it is well known from the litterature as an agent capable of preventing the generation of oxygen derived free radicals. In brief, rats were anaesthetised with sodium pentobarbital and ventilated with air using a respirator for small animals at a pressure 15-20 cm H2O and a […] rate of 60 strokes/min. ECG (electrocardiogram) and systemic blood pressure was registered on a Physiograph DMP-4B (Narco Bio-Systems, Houston, USA) using, respectively, a standard lead II and a pressure transducer PR-1500 (Narco Bio-Systems, Houston, USA) contected via a catheter to the left carotid artery. The chest was opened via the fourth intercostal space, the pericardium incised and a sling (4/0 silk Medicor, Budapest, Hungary) was placed around the left coronary artery close to its origin. The silk ligature was passed through a piece of plastic tubing, the chest was partially closed and the animal was allowed to recover for 10 min. PR-5, dissolved in 0.9% NaCl, was then injected i.v. 10 min before the occlusion of the coronary artery at doses 1, 3 or 10 mg/kg body weight. As control served the same volume of 0.9% NaCl. The coronary artery was occluded for a period of 10 min by applying tension to the ligature and pressing the tube onto the heart surface. Reperfusion was initiated by removing the clamp and releasing the tension on the ligature and allowing the perfusion to continue for 20 min. Ventricular ectopic activity was assessed during the 20 min reperfusion period by measuring the duration of ventricular tachycardias and ventricular fibrillations from the ECG curves. The results are shown in Table 2, where the results are presented as mean ±SEM (in seconds) for the total duration of ventricular tachycardias and ventricular fibrillations during the 20 min reperfusion period, (or until eventual death of the animal). The incidence of animals showing ventricular tachycardia and ventricular fibrillation are also given Table 2 as the number of animals showing ventricular tachycardia and ventricular fibrillation. Figures in parenthese relate to incidents expressed in % of the total number of animals.
In Table 2 a star “*” denotes a significant difference from the control at p<0.05 using the appropriate statistical test. Alp=allopurinol. n=number of animals tested.

[3] = 1 mg/kg i.v. 10 min before occlusion, 20 min reperfusion
[4] = 1 mg/kg i.v., 20 min reperfusion
[5] = 1 mg/kg i.v., mean ±SEM, 20 min reperfusion
[6] = 3 mg/kg i.v. 10 min before occlusion, 20 min reperfusion
[7] = 3 mg/kg i.v., 20 min reperfusion
[8] = 3 mg/kg i.v., mean ±SEM, 20 min reperfusion
[9] = 10 mg/kg, mean ±SEM, 20 min reperfusion

Sequence of bovine milk xanthine oxidase (P80457 whole entry): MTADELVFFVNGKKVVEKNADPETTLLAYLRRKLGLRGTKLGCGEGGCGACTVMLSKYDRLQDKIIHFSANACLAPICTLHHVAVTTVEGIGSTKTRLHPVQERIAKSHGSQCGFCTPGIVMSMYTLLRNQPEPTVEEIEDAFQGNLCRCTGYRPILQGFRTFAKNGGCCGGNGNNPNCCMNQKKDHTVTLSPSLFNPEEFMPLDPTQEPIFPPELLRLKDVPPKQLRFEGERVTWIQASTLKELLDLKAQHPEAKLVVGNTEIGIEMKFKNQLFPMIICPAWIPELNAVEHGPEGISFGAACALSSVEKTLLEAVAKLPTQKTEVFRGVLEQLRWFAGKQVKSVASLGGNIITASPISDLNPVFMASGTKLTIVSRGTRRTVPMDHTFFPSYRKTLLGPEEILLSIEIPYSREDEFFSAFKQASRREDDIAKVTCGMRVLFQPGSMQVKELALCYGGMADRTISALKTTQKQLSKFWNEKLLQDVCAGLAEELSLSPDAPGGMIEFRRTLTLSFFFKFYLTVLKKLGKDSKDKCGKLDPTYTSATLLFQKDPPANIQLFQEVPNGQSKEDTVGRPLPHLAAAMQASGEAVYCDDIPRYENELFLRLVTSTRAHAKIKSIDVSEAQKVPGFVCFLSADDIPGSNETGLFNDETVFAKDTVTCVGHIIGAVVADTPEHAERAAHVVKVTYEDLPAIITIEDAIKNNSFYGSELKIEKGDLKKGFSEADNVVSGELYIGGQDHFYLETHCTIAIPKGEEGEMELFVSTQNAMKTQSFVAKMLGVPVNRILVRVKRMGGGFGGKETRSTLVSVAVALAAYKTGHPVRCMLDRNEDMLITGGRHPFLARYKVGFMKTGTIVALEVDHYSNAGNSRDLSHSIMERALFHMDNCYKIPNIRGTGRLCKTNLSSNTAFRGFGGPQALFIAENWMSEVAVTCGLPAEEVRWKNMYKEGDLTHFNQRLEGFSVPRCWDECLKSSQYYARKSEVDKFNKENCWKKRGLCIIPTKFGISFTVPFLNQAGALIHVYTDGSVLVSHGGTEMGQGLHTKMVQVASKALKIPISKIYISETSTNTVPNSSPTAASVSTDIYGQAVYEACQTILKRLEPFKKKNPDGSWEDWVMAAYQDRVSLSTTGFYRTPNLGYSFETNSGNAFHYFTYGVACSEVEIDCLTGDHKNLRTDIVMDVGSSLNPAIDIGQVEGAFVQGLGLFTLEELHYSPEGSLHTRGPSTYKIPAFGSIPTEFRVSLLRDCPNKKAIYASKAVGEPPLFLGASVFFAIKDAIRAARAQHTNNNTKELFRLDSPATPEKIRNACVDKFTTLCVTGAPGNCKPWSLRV

With `COc1ccc(C=NNC(=N)NO)c(Cl)c1OC` [PR5, N-(3,4-Dimethoxy-2-chlorobenzylideneamino)-N′-hydroxyguanidine tosylate] the “V = 1000 × (Δabs 295 nm) min^−1 (initial rate of the support of the oxidation of xanthine)” value ([1]; 50 μM hydroxyguanidine, 50 μM xanthine, 0.05 units/ml xanthine oxidase, anaerobic, pH 7.5, 20° C., blank subtracted) was 96 1000 × (Δabs 295 nm) min^−1, the “activity / capacity to undergo reduction (reaction A), in words” value ([1]; as disclosed in Example 7) was “high activity” and the “uric acid in original incubation medium” value (rat spleen tissue; 0.5 mM PR5, anaerobic (argon), 60 min, 37° C.) was 285.5 µmol/L. For the same compound, the “formation of uric acid under the anaerobic conditions, in words” value (rat spleen tissue; 0.5 mM PR5, compared with aerobic control) was “restored completely to that of the aerobic control”, the “Mortality Insidence (%)” value ([2]; 1 mg/kg i.v.) was 14% and the “Mortality Insidence (number of animals)” value ([2]; 1 mg/kg i.v.) was 2. For the same compound, the “Ventricular tachycardia Insidence (%)” value [2, 3] was 79%, the “Ventricular tachycardia Insidence (number of animals)” value [2, 3] was 11 and the “Ventricular fibrilation Insidence (%)” value [2, 4] was 57%. For the same compound, the “Ventricular fibrilation Insidence (number of animals)” value [2, 4] was 8, the “Ventricular fibrilation Duration” value [2, 5] was 34 ± 9 s and the “Ventricular tachycardia Duration” value [2, 5] was 61 ± 11 s. For the same compound, the “Mortality Insidence (%)” value ([2]; 3 mg/kg i.v.) was 0 (0)* %, the “Mortality Insidence (number of animals)” value ([2]; 3 mg/kg i.v.) was 0 (0)* and the “Ventricular tachycardia Insidence (%)” value [2, 6] was 64%. For the same compound, the “Ventricular tachycardia Insidence (number of animals)” value [2, 6] was 9, the “Ventricular fibrilation Insidence (%)” value [2, 7] was 43% and the “Ventricular fibrilation Insidence (number of animals)” value [2, 7] was 6. For the same compound, the “Ventricular fibrilation Duration (s)” value [2, 8] was 20 ± 7* s, the “Ventricular tachycardia Duration (s)” value [2, 8] was 38 ± 7* s and the “Mortality Insidence (%)” value ([2]; 10 mg/kg) was 7%. For the same compound, the “Mortality Insidence (number of animals)” value ([2]; 10 mg/kg) was 1, the “Ventricular fibrilation Insidence (%)” value ([2]; 10 mg/kg, 20 min reperfusion) was 36% and the “Ventricular fibrilation Insidence (number of animals)” value ([2]; 10 mg/kg, 20 min reperfusion) was 5. For the same compound, the “Ventricular tachycardia Insidence (%)” value ([2]; 10 mg/kg, 20 min reperfusion) was 57%, the “Ventricular tachycardia Insidence (number of animals)” value ([2]; 10 mg/kg, 20 min reperfusion) was 8 and the “Ventricular fibrilation Duration (s)” value [2, 9] was 17 ± 5* s. For the same compound, the “Ventricular tachycardia Duration (s)” value [2, 9] was 34 ± 7* s and the “effect on incidence and duration of ventricular tachycardias and fibrillations and on mortality, in words” value ([2]; versus control, p<0.05) was “significant decrease”.
